The source of these data is US20240158348A1, “HERBICIDAL CYCLIC AMIDES N-SUBSTITUTED WITH A HALOALKYLSULFONYLANILIDE GROUP” (FMC Corporation, priority 2021, published 2024).

What all share (type): in vivo
The test system of assay [1] is barnyardgrass (Echinochloa crus-galli). As to the kind of experiment: Test A preemergence, barnyardgrass. The following applies: 10 days. The text has this: (§1) Seeds of plant species selected from barnyardgrass (Echinochloa crus-galli), blackgrass (Alopecurus myosuroides), corn (Zea mays), foxtail, giant (giant foxtail, Setaria faberi), goosegrass (Eleusine indica), kochia (Bassia scoparia), oat, wild (wild oat, Avena fatua), pigweed, palmer (palmer amaranth, Amaranthus palmeri), pigweed, redroot (redroot pigweed, Amaranthus retroflexus), ragweed (common ragweed, Ambrosia artemisiifolia), ryegrass, Italian (Italian ryegrass, Lolium multiflorum), soybean (Glycine max), and wheat (Triticum aestivum) were planted into a blend of loam soil and sand and treated preemergence with a directed soil spray using test chemicals formulated in a non-phytotoxic solvent mixture which included a surfactant.
(§2) At the same time, plants selected from these crop and weed species and also galium (catchweed bedstraw, Galium aparine) and horseweed (Erigeron canadensis) were planted in pots containing the same blend of loam soil and sand and treated with postemergence applications of test chemicals formulated in the same manner. Plants ranged in height from 2 to 10 cm and were in the one- to two-leaf stage for the postemergence treatment. Treated plants and untreated controls were maintained in a greenhouse for 10 days, after which time all treated plants were compared to untreated controls and visually evaluated for injury. Plant response ratings, summarized in Table A, are based on a 0 to 100 scale where 0 is no effect and 100 is complete control. A dash (-) response means no test result.

For assay [2], the system named is pigweed, redroot (redroot pigweed, Amaranthus retroflexus). As to the kind of experiment: Test A preemergence, redroot pigweed. The following applies: 0 to 100 scale, 10 days.
Text: as §1, §2

The test system of assay [3] is barnyardgrass (Echinochloa crus-galli). Briefly: Test A postemergence, barnyardgrass. The following applies: 0 to 100 scale, 10 days.
Text: as §1, §2

For assay [4], the system named is pigweed, redroot (redroot pigweed, Amaranthus retroflexus). As to the kind of experiment: Test A postemergence, redroot pigweed. The following applies: 0 to 100 scale, 10 days.
Text: as §1, §2

For assay [5], the system named is horseweed (Erigeron canadensis). As to the kind of experiment: Test A postemergence, horseweed. The following applies: 0 to 100 scale, 10 days.
Text: as §1, §2

[6] abbreviates: 125 g ai/ha, 0 to 100 scale (0 no effect, 100 complete control).

The structures appear in SMILES notation.

As to `C#CCOC1CCN(c2cc(NS(=O)(=O)C(F)(F)F)c(C)cc2C)C1=O` (stereo not drawn) [Compound 1, N-[2,4-dimethyl-5-[2-oxo-3-(2-propyn-1-yloxy)-1-pyrrolidinyl]phenyl]-1,1,1-trifluoromethanesulfonamide], the “Plant response rating, Barnyardgrass” value was 80 in assay [1] (31 g ai/ha, 0 to 100 scale); 100 in assay [1] (setting [6]); 80 in assay [3] (31 g ai/ha); 90 in assay [3] (125 g ai/ha). The “Plant response rating, Pigweed, Redroot” value in assay [2] (31 g ai/ha) stood at 90; in assay [2] (125 g ai/ha) it was 100; in assay [4] (31 g ai/ha) it was 80; in assay [4] (125 g ai/ha), 90.

On to `C=CCOC1CCN(c2cc(NS(=O)(=O)C(F)(F)F)c(C)cc2C)C1=O` (stereo not drawn) [Compound 2, N-[2,4-dimethyl-5-[2-oxo-3-(2-propen-1-yloxy)-1-pyrrolidinyl]phenyl]-1,1,1-trifluoromethanesulfonamide], for which the “Plant response rating, Barnyardgrass” value was determined as 0 in assay [1] (31 g ai/ha, 0 to 100 scale); 100 in assay [1] (setting [6]); 30 in assay [3] (31 g ai/ha); 90 in assay [3] (125 g ai/ha). Besides, the “Plant response rating, Pigweed, Redroot” value in assay [2] (31 g ai/ha) came to 90; in assay [2] (125 g ai/ha) it was 100; in assay [4] (31 g ai/ha), 90; in assay [4] (125 g ai/ha) it was 90.

Regarding `Cc1cc(C)c(N2CCC(OC3CC3)C2=O)cc1NS(=O)(=O)C(F)(F)F` (stereo not drawn) [Compound 3, N-[5-[3-(cyclopropyloxy)-2-oxo-1-pyrrolidinyl]-2,4-dimethylphenyl]-1,1,1-trifluoromethanesulfonamide], the figures for the “Plant response rating, Horseweed” value in assay [5] (31 g ai/ha) and in assay [5] (125 g ai/ha) were 70 and 90, respectively.

Regarding `Cc1cc(C)c(N2CCC(OC3CCC3)C2=O)cc1NS(=O)(=O)C(F)(F)F` (stereo not drawn) [Compound 4, N-[5-[3-(cyclobutyloxy)-2-oxo-1-pyrrolidinyl]-2,4-dimethylphenyl]-1,1,1-trifluoromethanesulfonamide], the “Plant response rating, Horseweed” value is listed as 90 in assay [5] (31 g ai/ha) and 100 in assay [5] (125 g ai/ha).

Consider `Cc1cc(C)c(N(COC(=O)C(C)(C)C)S(=O)(=O)C(F)(F)F)cc1N1CCC(OC2CC2)C1=O` (stereo not drawn) [Compound 7, [[5-[3-(cyclopropyloxy)-2-oxo-1-pyrrolidinyl]-2,4-dimethylphenyl][(trifluoromethyl)sulfonyl]amino]methyl 2,2-dimethylpropanoate], for which the figures for the “Plant response rating, Horseweed” value in assay [5] (31 g ai/ha) and in assay [5] (125 g ai/ha) were 80 and 90, respectively.

As for `Cc1cc(C)c(N(COC(=O)C(C)(C)C)S(=O)(=O)C(F)(F)F)cc1N1CCC(OC2CCC2)C1=O` (stereo not drawn) [Compound 8, [[5-[3-(cyclobutyloxy)-2-oxo-1-pyrrolidinyl]-2,4-dimethylphenyl][(trifluoromethyl)sulfonyl]amino]methyl 2,2-dimethylpropanoate], the figures for the “Plant response rating, Horseweed” value in assay [5] (31 g ai/ha) and in assay [5] (125 g ai/ha) were 70 and 90, respectively.
